Where two headings read alike, the source gives them in different places.
Key:
[1] = Kellner et al., Nature (1967); cited from earlier work
GS186core = test: DBD dose-response IC50, patient derived GSC culture; assay type: cell-based; settings: Homo sapiens
Procedure: (§1) To assess the effects of crystalline DBD polymorph on the growth of patient derived GSC's (Glioma serum-free Stem-cell like cultures), dose-response assays were performed on twenty cultures. […] A dose-dependent decrease in viability was found, and the IC50 values of could be calculated using linear regression analysis. Specifically, looking at Table 1, a high variation of different IC50 values is seen in this panel of patient derived GSC's. In addition, no correlation is seen between the MGMT promotor methylation status and the amount of the IC50 value.

GS186peri = test: as above; assay type: cell-based; settings: Homo sapiens
Procedure: as §1

GS245 = test: as above; assay type: cell-based; settings: Homo sapiens
Procedure: as §1

GS184 = test: as above; assay type: cell-based; settings: Homo sapiens
Procedure: as §1

GS289 = test: as above; assay type: cell-based; settings: Homo sapiens
Procedure: as §1

GS257 = test: as above; assay type: cell-based; settings: Homo sapiens
Procedure: as §1

GS102peri = test: as above; assay type: cell-based; settings: Homo sapiens
Procedure: as §1

GS261 = test: as above; assay type: cell-based; settings: Homo sapiens
Procedure: as §1

GS279core = test: as above; assay type: cell-based; settings: Homo sapiens, 120 h, read-out: IC50 5 d
Procedure: as §1

GS324core = test: as above; assay type: cell-based; settings: Homo sapiens
Procedure: as §1

GS365 = test: as above; assay type: cell-based; settings: Homo sapiens
Procedure: as §1

GS323peri = test: as above; assay type: cell-based; settings: Homo sapiens, 120 h, passage 17, day 5, read-out: IC50 5 d
Procedure: as §1

GS203 = test: as above; assay type: cell-based; settings: Homo sapiens
Procedure: as §1

GS104peri = test: as above; assay type: cell-based; settings: Homo sapiens
Procedure: as §1

GS279peri = test: as above; assay type: cell-based; settings: Homo sapiens
Procedure: as §1

GS304 = test: as above; assay type: cell-based; settings: Homo sapiens
Procedure: as §1

GS281 = test: as above; assay type: cell-based; settings: Homo sapiens
Procedure: as §1

GS359 = test: as above; assay type: cell-based; settings: Homo sapiens
Procedure: as §1

GS249 = test: as above; assay type: cell-based; settings: Homo sapiens
Procedure: as §1

GS224 = test: as above; assay type: cell-based; settings: Homo sapiens
Procedure: as §1

[2] = tested on: panel of 20 patient derived cell cultures; test: DBD combination treatment, overall result over the panel; assay type: cell-based, human
Procedure: Crystalline DBD polymorph treatment was combined with chemotherapy, radiotherapy and targeted inhibitors to determine whether the crystalline DBD polymorph form could: enhance efficacy of the conventional therapies; enhance efficacy when combined with newer ‘targeted’ therapies; or would make (a subset of) cultures more sensitive to this treatment.
Therefore, cultures were treated with: • a.

T98 glioma cell line = test: Cell Titer-Glo viability, DBD concentration range; assay type: cell-based, human; settings: 5 and 8 days
Procedure: (§2) These lines were seeded in triplicate in a 96-wells plate, in a dilution of 500 cells/well. […] FIGS. 1 and 2 show the histogram results of the two used glioma cell lines, T98 and U373. Specifically, the histograms are normalized in percentages, where the non-treated cells have a 100% survival. […] However, a concentration range between 1 and 100 μM was selected and was next tested on twenty patient-derived serum-free cell cultures.

U373 glioma cell line = test: Cell Titer-Glo viability, DBD concentration range; assay type: cell-based, human; settings: 5 and 8 days
Procedure: as §2

[3] = reported in the literature; cited from earlier work
[4] = 120 h, passage 14, day 5, read-out: IC50 5 d
[5] = passage 14, day 8, read-out: IC50 8 d

O[C@H]([C@H](O)[C@@H](O)CBr)[C@H](O)CBr [DBD, 1,6-dibromo-1,6-dideoxy-dulcitol]
antitumor effect [1]: selective a vigorous antitumor effect
IC50 (GS186core; [4]): 4.56 µM
IC50 (GS186core; [5]): 1.94 µM
IC50 (GS186peri; [4]): 4.24 µM
IC50 (GS186peri; [5]): 2.28 µM
IC50 (GS245; 120 h, GS245, passage 13, day 5, read-out: IC50 5 d): 6.58 µM
IC50 (GS245; GS245, passage 13, day 8, read-out: IC50 8 d): 3.35 µM
IC50 (GS184; 120 h, GS184, passage 15, day 5, read-out: IC50 5 d): 18.6 µM
IC50 (GS184; GS184, passage 15, day 8, read-out: IC50 8 d): 1.96 µM
IC50 (GS289; 120 h, GS289, passage 13, day 5, read-out: IC50 5 d): 6.88 µM
IC50 (GS289; GS289, passage 13, day 8, read-out: IC50 8 d): 3.22 µM
IC50 (GS257; 120 h, GS257, passage 13, day 5, read-out: IC50 5 d): 11.9 µM
IC50 (GS257; GS257, passage 13, day 8, read-out: IC50 8 d): 10.2 µM
IC50 (GS102peri; 120 h, passage 18, day 5, read-out: IC50 5 d): 41.8 µM
IC50 (GS102peri; passage 18, day 8, read-out: IC50 8 d): 11.9 µM
IC50 (GS261; 120 h, GS261, passage 11, day 5, read-out: IC50 5 d): 3.44 µM
IC50 (GS261; GS261, passage 11, day 8, read-out: IC50 8 d): 1.85 µM
IC50 (GS279core; GS279core (1), passage 13, day 5): 3.6 µM
IC50 (GS279core; GS279core (2), passage 16, day 5): 7.64 µM
IC50 (GS324core; 120 h, passage 16, day 5, read-out: IC50 5 d): 8.96 µM
IC50 (GS324core; passage 16, day 8, read-out: IC50 8 d): 2.98 µM
IC50 (GS365; 120 h, GS365, passage 14, day 5, read-out: IC50 5 d): 14.6 µM
IC50 (GS365; GS365, passage 14, day 8, read-out: IC50 8 d): 5.69 µM
IC50 (GS323peri): 4.75 µM
IC50 (GS203; 120 h, GS203, passage 20, day 5, read-out: IC50 5 d): 28.7 µM
IC50 (GS203; GS203, passage 20, day 8, read-out: IC50 8 d): 10.5 µM
IC50 (GS104peri; 120 h, passage 22, day 5, read-out: IC50 5 d): 3.48 µM
IC50 (GS104peri; passage 22, day 8, read-out: IC50 8 d): 0.57 µM
IC50 (GS279peri; 120 h, passage 13, day 5, read-out: IC50 5 d): 31.5 µM
IC50 (GS279peri; passage 13, day 8, read-out: IC50 8 d): 8.33 µM
IC50 (GS304; 120 h, GS304, passage 14, day 5, read-out: IC50 5 d): 106 µM
IC50 (GS304; GS304, passage 14, day 8, read-out: IC50 8 d): 12.2 µM
IC50 (GS281; 120 h, GS281, passage 13, day 5, read-out: IC50 5 d): 10.6 µM
IC50 (GS281; GS281, passage 13, day 8, read-out: IC50 8 d): 5.55 µM
IC50 (GS359; 120 h, GS359, passage 14, day 5, read-out: IC50 5 d): 11.8 µM
IC50 (GS359; GS359, passage 14, day 8, read-out: IC50 8 d): 7.27 µM
IC50 (GS249; 120 h, GS249, passage 18, day 5, read-out: IC50 5 d): 0.63 µM
IC50 (GS249; GS249, passage 18, day 8, read-out: IC50 8 d): 0.24 µM
IC50 (GS224; 120 h, GS224, passage 17, day 5, read-out: IC50 5 d): 33.3 µM
IC50 (GS224; GS224, passage 17, day 8, read-out: IC50 8 d): 10.9 µM
enhancement of the cytotoxic effect ([2]; combined with radiation treatment): 30%
enhancement of the cytotoxic effect ([2]; combined with temozolomide): 50%
effect on cell viability (percentage of living cells vs non-treated) (T98 glioma cell line; 0.1 μM and 0.3 μM DBD): not effective
effect on cell viability (percentage of living cells vs non-treated) (T98 glioma cell line; 300 μM DBD): not viable
effect on cell viability (percentage of living cells vs non-treated) (U373 glioma cell line; 0.1 μM and 0.3 μM DBD): not effective
effect on cell viability (percentage of living cells vs non-treated) (U373 glioma cell line; 300 μM DBD): not viable
solubility [3]: poorly soluble

From patent US20220142941A1, “COMBINATION THERAPEUTIC REGIMENS WITH 1,6-DIBROMO-1,6-DIDEOXY-DULCITOL” (Eleison Pharmaceuticals LLC, priority 2019, published 2022)
